Experiment [1] concerns the target T1, MAGL (Homo sapiens, UniProt Q99685).
T1 construct: Proteomes (human prefrontal cortex or cell membrane fractions); from tissue
T1 sequence (Q99685 1-303): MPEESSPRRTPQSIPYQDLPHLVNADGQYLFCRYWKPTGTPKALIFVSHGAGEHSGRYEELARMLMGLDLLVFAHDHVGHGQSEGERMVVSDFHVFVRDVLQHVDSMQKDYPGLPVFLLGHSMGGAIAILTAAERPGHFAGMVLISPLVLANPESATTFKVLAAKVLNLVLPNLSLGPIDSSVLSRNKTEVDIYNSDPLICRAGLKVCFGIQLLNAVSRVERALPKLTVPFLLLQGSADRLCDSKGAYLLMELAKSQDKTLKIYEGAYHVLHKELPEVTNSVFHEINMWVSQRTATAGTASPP
Put plainly: In vitro competitive activity-based protein profiling (gel-based, FP-Rh or HT-01 probe). Type of experiment: biochemical. On the procedure: (§1) Compounds are tested to assess their MAGL and serine hydrolase activity using the following in vitro and in vivo assays.
(§2) Proteomes (human prefrontal cortex or cell membrane fractions) (50 μL, 1.0 mg/mL total protein concentration) were preincubated with varying concentrations of inhibitors at 37° C. After 30 min, FP—Rh or HT-01 (1.0 μL, 50 μM in DMSO) was added and the mixture was incubated for another 30 min at room temperature. Reactions were quenched with SDS loading buffer (15 μL-4×) and run on SDS-PAGE.

In another experiment the target is T2, ABHD6 (Mus musculus, UniProt Q8R2Y0).
T2 construct: Brain; from tissue; host or cells: mouse brain proteome
T2 sequence (Q8R2Y0 1-336): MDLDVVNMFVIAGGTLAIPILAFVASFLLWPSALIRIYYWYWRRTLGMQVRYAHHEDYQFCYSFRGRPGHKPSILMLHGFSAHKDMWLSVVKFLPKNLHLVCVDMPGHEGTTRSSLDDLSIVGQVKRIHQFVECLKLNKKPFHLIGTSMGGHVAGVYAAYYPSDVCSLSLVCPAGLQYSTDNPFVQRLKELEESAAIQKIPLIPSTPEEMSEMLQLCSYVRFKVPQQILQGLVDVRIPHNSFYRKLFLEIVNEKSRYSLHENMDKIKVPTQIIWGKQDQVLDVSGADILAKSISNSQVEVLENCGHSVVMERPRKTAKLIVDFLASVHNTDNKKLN
Put plainly: In vitro competitive activity-based protein profiling, mouse brain proteome, ABHD6. It is filed as biochemical. The settings on record: for % Inh ABHD6 Brain (Mouse, μM): mouse brain proteome; for IC50: mouse. The protocol: [Worded in the source for another target; this target is reported under the same test.] as §2

For a further experiment, the target named is T3, MGLL (Mus musculus, UniProt O35678).
T3 construct: Brain; from tissue; host or cells: mouse brain proteome
T3 sequence (O35678 1-303): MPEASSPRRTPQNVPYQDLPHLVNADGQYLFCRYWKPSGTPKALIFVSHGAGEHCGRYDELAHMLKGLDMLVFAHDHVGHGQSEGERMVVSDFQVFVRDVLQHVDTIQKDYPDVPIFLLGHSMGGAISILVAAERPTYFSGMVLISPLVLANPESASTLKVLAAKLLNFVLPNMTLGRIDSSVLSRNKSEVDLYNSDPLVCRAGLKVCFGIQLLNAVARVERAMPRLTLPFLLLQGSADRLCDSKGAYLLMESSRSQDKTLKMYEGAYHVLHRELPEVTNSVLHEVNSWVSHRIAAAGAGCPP
Put plainly: In vitro competitive activity-based protein profiling, mouse brain proteome. Type of experiment: biochemical. The protocol:
[Worded in the source for another species; this species is reported under the same test.] as §2

Experiment [2] has as its target T4, MAGL (Mus musculus, UniProt O35678).
T4 construct: from tissue; host or cells: brain of wild-type C57Bl/6J mice
T4 sequence (O35678 1-303): T3 sequence (O35678 1-303)
Put plainly: Mouse brain proteomes from inhibitor treated mice (oral gavage, brain proteomes analyzed 4 h after administration). Type of experiment: in vivo, mouse (C57Bl/6J). The settings on record: brain proteome 4 h after administration, read-out: % Inh 5 mg/kg MGLL (Mouse). On the procedure: as §1
Preparation of Mouse Brain Proteomes from Inhibitor Treated Mice.
Inhibitors were administered to wild-type C57Bl/6J by oral gavage in a vehicle of polyethylene glycol. Each animal was sacrificed 4 h following administration and brain proteomes were prepared and analyzed according to previously established methods (See Niphakis, M. J., et al. (2011) ACS Chem. Neurosci. and Long, J. Z., et al. Nat. Chem. Biol. 5:37-44).

Where [3] appears, read: PC3 proteome, read-out: IC50 MGLL PC3 (Human).
Where [4] appears, read: PFC (prefrontal cortex) proteome, read-out: IC50 MGLL PFC (Human).

Where two headings read alike, the source gives them in different places. Bounds are passed on as bounds.

`O=C(O)CN1CC2CC1CN2c1cc(C(F)(F)F)ccc1CN1CCCC12CCN(C(=O)OC(C(F)(F)F)C(F)(F)F)CC2` (stereo not drawn) [Example 6, 2-(5-(2-((8-(((1,1,1,3,3,3-hexafluoropropan-2-yl)oxy)carbonyl)-1,8-diazaspiro[4.5]decan-1-yl)methyl)-5-(trifluoromethyl)phenyl)-2,5-diazabicyclo[2.2.1]heptan-2-yl)acetic acid]: the IC50 on MAGL [1] (setting [3]) and at MAGL [1] (setting [4]) was < 0.1 µM in each case. The “% Inh MGLL PFC (Human, μM)” value at MAGL [1] (PFC (prefrontal cortex) proteome) is “### (### is ≥ 75%)”. The “% Inh ABHD6 Brain (Mouse, μM)” value at ABHD6 is listed as “# (# is ≤ 25%)”. The “% Inh MGLL Brain (Mouse, μM)” value on MGLL was “### (### is ≥ 75%)”.
For the compound `CN(Cc1cc(N2CCCC2)cc(C(F)(F)F)c1)C1(C)CCN(C(=O)OC(C(F)(F)F)C(F)(F)F)CC1` [Example 76, 1,1,1,3,3,3-Hexafluoropropan-2-yl 4-methyl-4-(methyl(3-(pyrrolidin-1-yl)-5-(trifluoromethyl)benzyl)amino) piperidine-1-carboxylate], the IC50 – broadly, the concentration at which inhibition is half-maximal – is < 0.1 µM on MAGL [1] (setting [4]), > 1 µM at ABHD6 and 0.1 to 1 µM at MGLL.
As to `O=C(O)CN1CC2CC1CN2c1cc(CN2CC3(CCN(C(=O)OC(C(F)(F)F)C(F)(F)F)CC3)C2)cc(C(F)(F)F)c1` (stereo not drawn) [Example 129, 2-(5-{3-[(7-{[(1,1,1,3,3,3-Hexafluoropropan-2-yl)oxy]carbonyl}-2,7-diazaspiro[3.5]nonan-2-yl)methyl]-5-(trifluoromethyl)phenyl}-2,5-diazabicyclo[2.2.1]heptan-2-yl)acetic acid], the inhibition at 5 mg/kg at MAGL [2] is ≤ 25%.
Consider `O=C(O)[C@@H]1CCCN1C1CCN(c2cc(C(F)(F)F)ccc2CN2CCCC23CCN(C(=O)OC(C(F)(F)F)C(F)(F)F)CC3)CC1` [Example 164, (1-(2-((8-(((1,1,1,3,3,3-Hexafluoropropan-2-yl)oxy)carbonyl)-1,8-diazaspiro[4.5]decan-1-yl)methyl)-5-(trifluoromethyl)phenyl)piperidin-4-yl)-L-proline], for which, at MAGL [1] (PC3 proteome), the “% Inh MGLL PC3 (Human, μM)” value is “### (### is ≥ 75%)”. Moreover, the “% Inh ABHD6 Brain (Mouse, μM)” value on ABHD6 is “# (# is ≤ 25%)”. The “% Inh MGLL Brain (Mouse, μM)” value on MGLL is given as “### (### is ≥ 75%)”.
With `O=C(O)C1CCN(c2cc(Cl)ccc2CN2CCC3(CC2)CCN(C(=O)OC(C(F)(F)F)C(F)(F)F)C3)CC1` [Example 194, 1-(5-Chloro-2-((2-(((1,1,1,3,3,3-hexafluoropropan-2-yl)oxy)carbonyl)-2,8-diazaspiro[4.5]decan-8-yl)methyl)phenyl) piperidine-4-carboxylic acid], the IC50 is < 0.1 µM on MAGL [1] (setting [3]), < 0.1 µM at MAGL [1] (setting [4]), > 1 µM on ABHD6 and 0.1 to 1 µM on MGLL.
In the case of `O=C(O)C1CCN(c2cc(C(F)(F)F)ccc2CN2CCC3(CC2)CCN(C(=O)OC(C(F)(F)F)C(F)(F)F)C3)CC1` [Example 195, 1-(2-((2-(((1,1,1,3,3,3-Hexafluoropropan-2-yl)oxy)carbonyl)-2,8-diazaspiro[4.5]decan-8-yl)methyl)-5-(trifluoromethyl)phenyl)piperidine-4-carboxylic acid], the IC50 on MAGL [1] (setting [3]) was < 0.1 µM; on MAGL [1] (setting [4]), 0.1 to 1 µM; at ABHD6, > 1 µM; on MGLL, 0.1 to 1 µM.
As to `CS(=O)(=O)N1CC2CN(c3cc(Cl)ccc3CN3CCN(C(=O)OC(C(F)(F)F)C(F)(F)F)CC3)CC2C1` (stereo not drawn) [Example 203, 1,1,1,3,3,3-Hexafluoropropan-2-yl 4-(4-chloro-2-(5-(methylsulfonyl)hexahydropyrrolo[3,4-c]pyrrol-2(1H)-yl)benzyl)piperazine-1-carboxylate], the figures for the IC50 on ABHD6 and on MGLL were > 1 µM and 0.1 to 1 µM, respectively.
Consider `CC(=O)N1CCCC12CCN(c1cc(Cl)ccc1CN1CCN(C(=O)OC(C(F)(F)F)C(F)(F)F)CC1)CC2` [Example 204, 1,1,1,3,3,3-Hexafluoropropan-2-yl 4-(2-(1-acetyl-1,8-diazaspiro[4.5]decan-8-yl)-4-chlorobenzyl) piperazie-1-carboxylate], for which the values for the IC50 on ABHD6 and at MGLL were > 1 µM and 0.1 to 1 µM, respectively.
The like results for `CS(=O)(=O)N1CCCC12CCN(c1cc(Cl)ccc1CN1CCN(C(=O)OC(C(F)(F)F)C(F)(F)F)CC1)CC2` [Example 205, 1,1,1,3,3,3-Hexafluoropropan-2-yl 4-(4-chloro-2-(1-(methylsulfonyl)-1,8-diazaspiro[4.5]decan-8-yl)benzyl)piperazine-1-carboxylate] were, in that order, > 1 µM and 0.1 to 1 µM.
For `CN1CC2CN(c3cc(Cl)ccc3CN3CCN(C(=O)OC(C(F)(F)F)C(F)(F)F)CC3)CC2C1` (stereo not drawn) [Example 206, 1,1,1,3,3,3-Hexafluoropropan-2-yl 4-(4-chloro-2-(5-methylhexahydro-pyrrolo[3,4-c]pyrrol-2(1H)-yl)benzyl)piperazine-1-carboxylate], the IC50 at ABHD6 is > 1 µM; at MGLL, 0.1 to 1 µM.
In the case of `CC(=O)N1CCCC12CCN(c1cc(C(F)(F)F)ccc1CN1CCN(C(=O)OC(C(F)(F)F)C(F)(F)F)CC1)CC2` [Example 208, 1,1,1,3,3,3-Hexafluoropropan-2-yl 4-(2-(1-acetyl-1,8-diazaspiro[4.5]decan-8-yl)-4-(trifluoromethyl)benzyl)piperazine-1-carboxylate], the IC50 on ABHD6 is > 1 µM; at MGLL, 0.1 to 1 µM.
As for `CS(=O)(=O)N1CCCC12CCN(c1cc(C(F)(F)F)ccc1CN1CCN(C(=O)OC(C(F)(F)F)C(F)(F)F)CC1)CC2` [Example 209, 1,1,1,3,3,3-Hexafluoropropan-2-yl-((2-(1-(methylsulfonyl)-1,8-diazaspiro[4.5]decan-8-yl)-4-(trifluoromethyl)benzyl)piperazine-1-carboxylate], the IC50 on ABHD6 was 0.1 to 1 µM; at MGLL, < 0.1 µM.
Take `CN1CCCC12CCN(c1cc(Cl)ccc1CN1CCN(C(=O)OC(C(F)(F)F)C(F)(F)F)CC1)CC2` [Example 214, 1,1,1,3,3,3-Hexafluoropropan-2-yl 4-(4-chloro-2-(1-methyl-1,8-diazaspiro[4.5]decan-8-yl)benzyl)piperazine-1--carboxylate]: the IC50 on ABHD6 was > 1 µM; at MGLL it was 0.1 to 1 µM.
Turning to `CN1CCCC12CCN(c1cc(C(F)(F)F)ccc1CN1CCN(C(=O)OC(C(F)(F)F)C(F)(F)F)CC1)CC2` [Example 215, 1,1,1,3,3,3-Hexafluoropropan-2-yl 4-(2-(1-methyl-1,8-diazaspiro[4.5]decan-8-yl)-4-(trifluoromethyl)benzyl)piperazine-1-carboxylate], the IC50 at ABHD6 is > 1 µM; on MGLL, 0.1 to 1 µM.
The like results for `CS(=O)(=O)N1CCc2cccc(CN3CCC4(CC3)CCN(C(=O)OC(C(F)(F)F)C(F)(F)F)C4)c2C1` [Example 217, 1,1,1,3,3,3-Hexafluoropropan-2-yl 8-((2-(methylsulfonyl)-1,2,3,4-tetrahydroisoquinolin-8-yl)methyl)-2,8-diazaspiro[4.5]decane-2-carboxylate] were, in that order, 0.1 to 1 µM and < 0.1 µM.
The like results for `CC(=O)N1CC2(CCN(c3ccccc3CN3CCC34CCN(C(=O)OC(C(F)(F)F)C(F)(F)F)CC4)C2)C1` [Example 228, 1,1,1,3,3,3-Hexafluoropropan-2-yl 1-(2-(2-acetyl-2,6-diazaspiro[3.4]octan-6-yl)benzyl)-1,7-diazaspiro[3.5]nonane-7-carboxylate] were, in that order, > 1 µM and 0.1 to 1 µM.
`CS(=O)(=O)N1CCC2(CCN(c3cc(Cl)cc(CN4CCCC45CN(C(=O)OC(C(F)(F)F)C(F)(F)F)C5)c3)CC2)C1` [Example 232]: the IC50 on ABHD6 is 0.1 to 1 µM; on MGLL, > 1 µM.

The record behind these values is US20210214375A1 (LUNDBECK LA JOLLA RESEARCH CENTER, INC., priority 2017, published 2021).
